In patent US20190031613A1, “COMPOUNDS AND METHODS FOR THEIR USE IN THE TREATMENT OF MALARIA” (University of South Florida, priority 2016, published 2019):
Entries after “also recorded” stand apart in the source; their conditions may differ. Read-outs that look alike come from different tables or passages of the source.

How the values were obtained:
[1] = tested on: P. berghei-GFP parasites; experiment: in vivo efficacy, modified Thompson test; parameters: species or system mice
Description: Prodrug 6d was orally tested for in vivo efficacy at four doses (0.3 mg/kg, 1.0 mg/kg, 3.0 mg/kg, and 10 mg/kg) in 0.5% aqueous HEC solution.

[2] = in vivo pharmacokinetics in mice (plasma, LC/MS-MS)
Description: Plasma exposure of prodrug 6e and parent compound 1b was determined following a single oral administration at 10 mg/kg and 3 mg/kg doses in 0.5% aqueous HEC (FIG. 5b).
Compounds 1b and its prodrug 6e were administered as a single dose (10 mg/kg) in 0.5% HEC using freshly prepared solution. Parent compound 1d and its prodrugs 6c and 6d were administered as a single dose of 50 mg/kg using the same vehicle. The blood was collected in prepared 5 ml syringe containing heparin via cardiac puncture and put into 15 mL conical tube on ice. Five mice were used per one time point at 0.5 h, 1 h, 2 h, 4 h, 8 h and 24 h […] plus 2 mice as a control (not-treated). The blood was then centrifuged for 5 min at 4000 rpm and plasma supernatant collected while avoiding the whole blood pellet at the bottom of the tube. The plasma was stored at −80° C. until the day of LC/MS-MS analysis.
Compound concentrations were quantitated in plasma samples by LC/MS-MS using an Agilent triple quadrupole instrument. Chromatographic separation was conducted using an Agilent HPLC with Phenomenex Kinetex C18 column (2.6 μm particle size, 50-4.6 mm i.d.) equipped with a Phenomenex Security Guard column. The mobile phase (1.25 mL/min) consisted of 0.05% formic acid in water and 0.05% formic acid in acetonitrile mixed using a linear gradient over 7 minutes. […] Plasma samples and calibration standards were prepared by protein precipitation with acetonitrile (3 parts acetonitrile to 1 part plasma), followed by centrifugation and analysis of the supernatant. Sample concentrations were determined by comparison to calibration standards prepared in blank plasma and assayed using the same conditions. The analytical lower limit of quantitation in plasma was typically 0.75-1.00 nM and accuracy, precision and recovery were within acceptable limits.
The plasma was first warmed up on ice for about 1 hour. Then 50 μL of plasma sample was precipitated with 150 μL of cold acetonitrile with internal standard (133 nM) P4Q-95^20) following by centrifugation at 4,000 rpm for 5 min at 4° C. and transfer˜150 μL of the supernatant to LCMS vial. The samples were analyzed using Agilent triple quadruple instrument in triplicates (5 mice×3 injections for each time point). The chemical structure of P4Q-95^20 is shown below:
The calibration curve for 1d was linear in 1 to 500 nM range so samples were diluted if needed to fit this linearity and then concentration recalculated accordingly. Calibration curve was run each time following the actual PK measurements and used for that particular compound.

[3] = aqueous stability and parent compound release by quantitative HPLC; settings: for parent compound released: parent 1d
Description: The stability of prodrugs in aqueous media and the release of parent compound was followed for 10 h using HPLC in triplicates.
Compound stability was assessed using quantitative HPLC in buffers at different pHs (2, 4, 7), in a simulated gastric fluid (SGF) and in a simulated intestinal fluid (SIF).

[4] = tested on: P. berghei; settings: cited from earlier work; for PO dose, single exposure radical cure: lowest single-cure dose as reported
[5] = 10 mg/kg PO, three daily doses days 3-5 PI, 0.5% aqueous HEC
[6] = 10 mg/kg PO, three daily doses days 3-5 PI, 0.5% aqueous HEC, untreated 13
[7] = 50 mg/kg PO, three daily doses days 3-5 PI, 0.5% aqueous HEC
[8] = oral dose 50.0 mg/kg, 0.5% aqueous HEC
[9] = single PO dose 0.01 mg/kg on day 3 PI
[10] = single PO dose 0.03 mg/kg on day 3 PI
[11] = single PO dose 0.1 mg/kg on day 3 PI
[12] = single PO dose 0.3 mg/kg on day 3 PI
[13] = single PO dose 3 mg/kg on day 3 PI
[14] = single PO dose 10 mg/kg on day 3 PI, 0.5% aqueous HEC
[15] = Table 3 control: 10 mg/kg PO, three daily doses days 3-5 PI

CNCCOC(=O)OCOc1c(-c2ccc(C(F)(F)F)cc2)c(C)nc2cc(OC)c(Cl)cc12.Cl [6c, 6-Chloro-7-methoxy-2-methyl-3-(4-(triftuoromethyl)phenyl)-4-(((2-(methylammonio)ethoxycarbonyl)oxy)methoxy)quinoline, chloride salt]
Suppression [%] day 6 PI [1, 5]: 75%
Day of death (avg) [1, 6]: 13
Day of death (avg) [1, 7]: 16
Suppression [%] day 6 PI [1, 7]: 96%
AUC0→24 [2, 8]: 8031 µmol·min/L
CL [2, 8]: 11.6 mL·kg/min
Vd [2, 8]: 7.8 L/kg
t1/2 apparent [2, 8]: 7.7 h
tmax [2, 8]: 4 h
Cmax ([2]; read-out: Cmax [μmol/L], oral dose 50.0 mg/kg, 0.5% aqueous HEC, parent in plasma): 12 µmol/L
AUC of 1d improved vs dosing of 1d ([2]; single oral 50 mg/kg): 36 fold
maximum plasma concentration of 1d ([2]; single oral 50 mg/kg of prodrug, 0.5% aqueous HEC): 12 µM
parent compound released ([3]; in 1 h at pH 7.0): > 90%
parent compound released ([3]; in 10 h at pH 4.0): > 25%

CNCCCOC(=O)OCOc1c(-c2ccc(C(F)(F)F)cc2)c(C)nc2cc(OC)c(Cl)cc12.Cl [6d, 6-Chloro-7-methoxy-2-methyl-3-(4-(trifluoromethyl)phenyl)-4-(((3-(methylammonio)propyloxycarbonyl)oxy)methoxy)quinoline, chloride salt]
Suppression [%] day 6 PI [1, 5]: 82%
Day of death (avg) [1, 6]: 13
Day of death (avg) [1, 7]: 14
Suppression [%] day 6 PI [1, 7]: 96%
life span of treated animals relative to untreated controls ([1]; 10 and 50 mg/kg PO): do not significantly extend the life span
AUC0→24 ([2]; mouse, in vivo, po, 50 mg/kg): 11664 µmol·min/L
AUC of 1d improved vs dosing of 1d ([2]; mouse, in vivo, po, 50 mg/kg): 52 fold
CL ([2]; mouse, in vivo, po, 50 mg/kg): 7.8 mL·kg/min
Cmax ([2]; mouse, in vivo, po, 50 mg/kg): 21.2 µmol/L
Vd ([2]; mouse, in vivo, po, 50 mg/kg): 4.3 L/kg
t1/2 apparent ([2]; mouse, in vivo, po, 50 mg/kg): 6.4 h
tmax ([2]; mouse, in vivo, po, 50 mg/kg): 1 h
aqueous stability ([3]; buffers pH 2, 4, 7, SGF, SIF): stable at low pH values; also recorded: more stable than 6c
parent compound released ([3]; in 5 h at pH 7.0): > 55%

CNCCCOC(=O)OCOc1c(-c2ccc(Oc3ccc(OC(F)(F)F)cc3)cc2F)c(C)nc2cc(OC)c(Cl)cc12.Cl [6e, 6-Chloro-7-methoxy-2-methyl-3-(2-fluoro-4-(4-(trifluoromethoxy)phenoxy)phenyl)-4-(((3-(methylammonio)propyloxycarbonyl)oxy)methoxy)quinoline, chloride salt]
Day of death (avg) [1, 9]: 13
Suppression [%] day 6 PI [1, 9]: <1%
Day of death (avg) [1, 10]: 13
Suppression [%] day 6 PI [1, 10]: <1%
Day of death (avg) [1, 11]: 13
Suppression [%] day 6 PI [1, 11]: < 1%
Day of death (avg) [1, 12]: 13
Suppression [%] day 6 PI [1, 12]: 57%
average suppression of parasitemia on day 13 ([1]; single PO dose 1 mg/kg): 90%
Suppression [%] day 6 PI ([1]; single PO dose 1 mg/kg on day 3 PI): 97%
Day of death (avg) ([1]; single PO dose 1 mg/kg on day 3 PI, 1 mg/kg): 21
Day of death (avg) [1, 13]: curative
Suppression [%] day 6 PI [1, 13]: > 99%
Day of death (avg) [1, 14]: curative
Suppression [%] day 6 PI [1, 14]: > 99%
oral dose producing single dose cures ([1]; single oral dose, no advanced formulation): 3 mg/kg
clearance ([2]; mouse, in vivo, po): low clearance
half-life ([2]; mouse, in vivo, po): ≥ 10 h
improvement in AUC vs parent ([2]; mouse, in vivo, po): 21 fold
improvement of Cmax vs parent ([2]; mouse, in vivo, po): 18 fold
AUC0→24 ([2]; mouse, in vivo, po, 3 mg/kg): 4818 µmol·min/L
Vd ([2]; mouse, in vivo, po, 3 mg/kg): 0.8 L/kg
tmax ([2]; mouse, in vivo, po, 3 mg/kg): 2 h
AUC0→24 ([2]; mouse, in vivo, po, 10 mg/kg): 10269 µmol·min/L
CL ([2]; mouse, in vivo, po, 10 mg/kg): 1.4 mL·kg/min
Cmax ([2]; mouse, in vivo, po, 10 mg/kg): 9.1 µmol/L
Vd ([2]; mouse, in vivo, po, 10 mg/kg): 1.6 L/kg
t1/2 apparent ([2]; mouse, in vivo, po, 10 mg/kg): 13.1 h
tmax ([2]; mouse, in vivo, po, 10 mg/kg): 4 h

CCN(CC)Cc1cc(Nc2ccnc3cc(Cl)ccc23)ccc1O [ADQ, reference compound]
Suppression [%] day 6 PI [1, 5]: >99%
Day of death (avg) [1, 6]: 21
Day of death (avg) [1, 15]: 21
Suppression [%] day 6 PI [1, 15]: >99%

C[C@H]1Cc2c([nH]c3cc(Cl)c(F)cc23)[C@@]2(N1)C(=O)Nc1ccc(Cl)cc12 [KAE609]
PO dose, single exposure radical cure [4]: 100 mg/kg

CS(=O)(=O)c1ccc(-c2cnc(N)c(-c3ccc(C(F)(F)F)nc3)c2)cc1 [MMV390048]
PO dose, single exposure radical cure [4]: 30 mg/kg

c1cc([C@H]2CC[C@]3(CC2)OO[C@]2(O3)C3CC4CC(C3)CC2C4)ccc1OCCN1CCOCC1 [OZ439]
single oral dose that cures P. berghei-infected mice ([4]; clinical candidate, given in combination with ferroquine in trials): 20 mg/kg
PO dose, single exposure radical cure [4]: 20 mg/kg
